pKi: −log10 of the molar value.
Key:
Carbonic anhydrase 2 = Carbonic anhydrase 2 (Homo sapiens, UniProt P00918)
Carbonic anhydrase 9 = Carbonic anhydrase 9 (Homo sapiens, UniProt Q16790)
Carbonic anhydrase 1 = Carbonic anhydrase 1 (Homo sapiens, UniProt P00915)
Carbonic anhydrase 1, sequence (P00915 whole entry): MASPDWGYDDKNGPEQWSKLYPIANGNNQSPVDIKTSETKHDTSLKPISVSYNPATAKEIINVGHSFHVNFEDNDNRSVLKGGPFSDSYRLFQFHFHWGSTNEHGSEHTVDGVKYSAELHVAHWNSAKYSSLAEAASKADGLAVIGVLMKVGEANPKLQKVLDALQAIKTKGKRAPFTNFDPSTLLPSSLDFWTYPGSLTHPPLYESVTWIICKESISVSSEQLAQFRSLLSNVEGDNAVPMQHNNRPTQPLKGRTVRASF

Question: `CC1(C)OB(c2ccc(NC(=S)Nc3ccc(S(=O)(=O)Nc4nnc(S(N)(=O)=O)s4)cc3)cc2)OC1(C)C` was tested. Which pKi (Carbonic anhydrase 2) did it give?
Answer: The pKi was 8.29.

Question: And the pKi (Carbonic anhydrase 9)?
Answer: Its pKi is 8.14.

Question: And the pKi (Carbonic anhydrase 1)?
Answer: The pKi was 7.47.

Question: Which results are given for `CC1(C)OB(c2ccc(C(=O)Nc3ccc(S(N)(=O)=O)cc3)cc2)OC1(C)C`?
Answer: pKi (Carbonic anhydrase 2): 8.28; pKi (Carbonic anhydrase 9): 7.28; pKi (Carbonic anhydrase 1): 7.15

Question: What does the source list for `CC1(C)OB(c2ccc(C(=O)Nc3nnc(S(N)(=O)=O)s3)cc2)OC1(C)C`?
Answer: pKi (Carbonic anhydrase 2): 8.51; pKi (Carbonic anhydrase 9): 8.12; pKi (Carbonic anhydrase 1): 7.44

Question: How did the pKi (Carbonic anhydrase 2) turn out when `CC1(C)OB(c2ccc(NC(=S)Nc3ccc(S(N)(=O)=O)cc3Br)cc2)OC1(C)C` was run?
Answer: Its pKi is 8.29.

Question: What about the pKi (Carbonic anhydrase 9) of the same compound?
Answer: The pKi was 7.05.

Question: What about the pKi (Carbonic anhydrase 1) of the same compound?
Answer: Its pKi is 7.14.

Question: Which results are given for `CC1(C)OB(c2ccc(NC(=S)Nc3ccc(S(N)(=O)=O)cc3)cc2)OC1(C)C`?
Answer: pKi (Carbonic anhydrase 2): 8.29; pKi (Carbonic anhydrase 9): 7.10; pKi (Carbonic anhydrase 1): 7.16

Question: Which results are given for `CC1(C)OB(c2ccc(NS(N)(=O)=O)cc2)OC1(C)C`?
Answer: pKi (Carbonic anhydrase 9): 7.09; pKi (Carbonic anhydrase 1): 7.04

Question: How did the pKi (Carbonic anhydrase 2) turn out when `CC1(C)OB(c2ccc(OS(N)(=O)=O)cc2)OC1(C)C` was run?
Answer: Its pKi is 7.49.

Question: What about the pKi (Carbonic anhydrase 9) of the same compound?
Answer: The pKi was 7.10.

Question: What about the pKi (Carbonic anhydrase 1) of the same compound?
Answer: The pKi was 7.03.

Question: `CC1(C)OB(c2ccc(NC(=S)Nc3cccc(S(N)(=O)=O)c3)cc2)OC1(C)C` was tested. Which pKi (Carbonic anhydrase 2) did it give?
Answer: Its pKi is 8.26.

Question: And the pKi (Carbonic anhydrase 9)?
Answer: The pKi was 7.09.

Question: What about the pKi (Carbonic anhydrase 1) of the same compound?
Answer: The pKi was 7.15.

Question: How did the pKi (Carbonic anhydrase 2) turn out when `CC1(C)OB(c2ccc(N/C(S)=N/c3ccc(S(N)(=O)=O)cc3Cl)cc2)OC1(C)C` was run?
Answer: The pKi was 8.30.

Question: And the pKi (Carbonic anhydrase 9)?
Answer: Its pKi is 7.09.

Question: What about the pKi (Carbonic anhydrase 1) of the same compound?
Answer: Its pKi is 7.15.

Question: With `CC1(C)OB(c2ccc(NC(=S)Nc3ccc(S(N)(=O)=O)cc3I)cc2)OC1(C)C` as the compound, how does the pKi (Carbonic anhydrase 2) read?
Answer: The pKi was 8.01.

Question: And the pKi (Carbonic anhydrase 9)?
Answer: Its pKi is 8.03.

Question: And the pKi (Carbonic anhydrase 1)?
Answer: The pKi was 7.04.

Question: How did the pKi (Carbonic anhydrase 2) turn out when `CC1(C)OB(c2ccc(N/C(S)=N/c3ccc(S(N)(=O)=O)cc3F)cc2)OC1(C)C` was run?
Answer: The pKi was 8.29.

Question: What about the pKi (Carbonic anhydrase 9) of the same compound?
Answer: Its pKi is 8.00.

Question: And the pKi (Carbonic anhydrase 1)?
Answer: Its pKi is 7.11.

Question: `CC1(C)OB(c2ccc(C(=O)NCc3ccc(S(N)(=O)=O)cc3)cc2)OC1(C)C` was tested. Which pKi (Carbonic anhydrase 2) did it give?
Answer: Its pKi is 8.27.

Question: What about the pKi (Carbonic anhydrase 1) of the same compound?
Answer: Its pKi is 7.16.

Question: `CC1(C)OB(c2ccc(N/C(S)=N/c3ccc(S(=O)(=O)Nc4ccc(S(N)(=O)=O)cc4)cc3)cc2)OC1(C)C` was tested. Which pKi (Carbonic anhydrase 2) did it give?
Answer: The pKi was 8.20.

Question: And the pKi (Carbonic anhydrase 9)?
Answer: Its pKi is 7.08.

Question: And the pKi (Carbonic anhydrase 1)?
Answer: Its pKi is 7.31.

Question: How did the pKi (Carbonic anhydrase 2) turn out when `CC1(C)OB(c2ccc(C(=O)NCCc3ccc(S(N)(=O)=O)cc3)cc2)OC1(C)C` was run?
Answer: The pKi was 8.29.

Question: And the pKi (Carbonic anhydrase 9)?
Answer: Its pKi is 7.38.

Question: And the pKi (Carbonic anhydrase 1)?
Answer: Its pKi is 7.15.

— ChEMBL document CHEMBL1140244, “Carbonic anhydrase inhibitors. Synthesis and inhibition of cytosolic/tumor-associated carbonic anhydrase isozymes I, II, and IX with boron-containing sulfonamides, sulfamides, and sulfamates: toward agents for boron neutron capture therapy of hypoxic tumors” (Bioorg Med Chem Lett, 2005)
